Laboratory results taken from ChEMBL document CHEMBL1149137, “Synthesis, screening, and molecular modeling of new potent and selective antagonists at the alpha 1d adrenergic receptor” (J Med Chem, 2004).

Columns and labels:
[1] = target: Alpha-1D adrenergic receptor (Homo sapiens) (UniProt P25100); assay: Binding affinity to the adrenergic receptor alpha-1D of cloned human receptor
[2] = target: T1, 5-hydroxytryptamine receptor 1A (Homo sapiens, UniProt P08908); assay: Binding affinity to human 5-hydroxytryptamine 1A receptor was measured using [3H]-8-hydroxy-2-(di-n-propylamine) tetraline [3H]8-OH-DPAT) as radioligand
T1 sequence (P08908 whole entry): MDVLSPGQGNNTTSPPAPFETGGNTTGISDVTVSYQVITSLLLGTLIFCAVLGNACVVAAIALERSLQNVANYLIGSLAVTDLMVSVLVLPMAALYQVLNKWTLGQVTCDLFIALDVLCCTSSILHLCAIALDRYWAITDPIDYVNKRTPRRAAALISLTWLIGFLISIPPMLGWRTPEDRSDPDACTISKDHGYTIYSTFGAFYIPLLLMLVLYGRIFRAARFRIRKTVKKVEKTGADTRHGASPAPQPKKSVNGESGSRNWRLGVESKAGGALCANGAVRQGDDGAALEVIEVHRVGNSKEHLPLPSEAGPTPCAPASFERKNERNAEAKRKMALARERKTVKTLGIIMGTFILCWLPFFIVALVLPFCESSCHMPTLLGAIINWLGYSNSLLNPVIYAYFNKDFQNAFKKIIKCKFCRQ

[3] = target: Alpha-1A adrenergic receptor (Homo sapiens) (UniProt P35348); assay: In vitro binding affinity towards alpha-1A adrenergic receptor through displacement of [3H]prazosin in cloned human receptor.

Structure (SMILES) | Ki [1] [nM] | Ki [2] [nM] | Ki [3] [nM]
O=C1CC2(CCCC2)CC(=O)N1CCN1CCN(c2ccc(Cl)cc2)CC1 | 35.9 | 599 | 
Cc1ccccc1N1CCN(CCN2C(=O)CC3(CCCC3)CC2=O)CC1 | 2.16 | 25.4 | 584
CC1(C)CC(=O)N(CCN2CCN(c3ccccc3Cl)CC2)C(=O)C1 | 23.4 | 65.8 | 
O=C1CCC(=O)N1CCN1CCN(c2cc(Cl)ccc2Cl)CC1 | 7.78 |  | 
O=C1CC2(CCCC2)CC(=O)N1CCN1CCN(c2ccccc2)CC1 | 4.32 | 35.7 | 3350
CC1CN(c2ccccc2[N+](=O)[O-])CC(C)N1CCN1C(=O)CC2(CCCC2)CC1=O (stereo unspecified) | > 1000 | 399 | 
O=C1CC2(CCCC2)CC(=O)N1CCN1CCN(c2cccc(Cl)c2)CC1 | 2.02 | 1.09 | > 1000
CN(CCN1C(=O)CC2(CCCC2)CC1=O)CC(=O)Nc1cc(Cl)ccc1Cl | > 1000 | > 10000 | 
O=C1CC2(CCCCC2)CC(=O)N1CCN1CCN(c2ccccc2Cl)CC1 | 2.88 | 20 | 422
O=C1CC2(CCCC2)CC(=O)N1CCN1CCN(c2cc([N+](=O)[O-])ccc2F)CC1 | 46.3 | > 1000 | 
COc1ccccc1OCCN(C)CCN1C(=O)CC2(CCCC2)CC1=O | 18.2 | 259 | > 1000
O=C1CC2(CCCC2)CC(=O)N1CCCCN1CCN(c2cc(Cl)ccc2Cl)CC1 | 0.67 | 26.1 | 1.81
O=C1CC2(CCCC2)CC(=O)N1CCN1CCN(c2cc(C(F)(F)F)ccc2Cl)CC1 | 39.1 | > 1000 | 
N#Cc1ccc(Cl)cc1N1CCN(CCN2C(=O)CC3(CCCC3)CC2=O)CC1 | 0.2 |  | 503
COc1ccccc1N1CCN(CCN2C(=O)CC3(CCN(C(C)=O)CC3)CC2=O)CC1 | 429 | > 10 | 1520
Cc1ccc(N2CCN(CCN3C(=O)CC4(CCCC4)CC3=O)CC2)c(C)c1 | 73.3 | 2360 | 
COc1ccc(N2CCN(CCN3C(=O)CC4(CCCC4)CC3=O)CC2)cc1 | 37.8 | 54.6 | 
O=C1CC2(CCCC2)CC(=O)N1CCN1CCN(c2cc(F)ccc2F)CC1 | 0.14 | 61 | 
Cc1ccc(Cl)cc1N1CCN(CCN2C(=O)CC3(CCCC3)CC2=O)CC1 | 0.37 | 135 | 190
O=C1CC2(CCCC2)CC(=O)N1CCN1CCCN(c2ccccc2Cl)CC1 | 1.38 | 0.34 | 295
CC(C)c1ccc(N2CCN(CCN3C(=O)CC4(CCCC4)CC3=O)CC2)cc1 | > 1000 | > 1000 | 
CC(C)Oc1ccccc1N1CCN(CCN2C(=O)CC3(CCCC3)CC2=O)CC1 | 2.9 | 0.54 | 3.54
O=C1CC2(CCCC2)CCN1CCN1CCN(c2ccccc2Cl)CC1 | 0.54 | 1.06 | 87.5
CC1CN(c2ccccc2[N+](=O)[O-])CCN1CCN1C(=O)CC2(CCCC2)CC1=O (stereo unspecified) | 597 | 86.2 | 
CN(C(=O)CNCCN1C(=O)CC2(CCCC2)CC1=O)c1cc(Cl)ccc1Cl | > 1000 | > 1000 | 

Structure (SMILES) | Ki [1] [nM] | Ki [2] [nM] | Ki [3] [nM]
O=C1CC2(CCCC2)CC(=O)N1CCN1CCN(c2ccccc2Br)CC1 | 1.6 | 1.29 | 376
O=C1CC2(CCCC2)CC(=O)N1CCN1CCN(c2ccc(Cl)c(Cl)c2)CC1 | 5.38 | 19.8 | 
O=C1CC2(CCCC2)CC(=O)N1CCN1CCN(c2ccccc2C2CC2)CC1 | 1.34 | 1.2 | 10.9
CN(CCOc1ccccc1Cl)CCN1C(=O)CC2(CCCC2)CC1=O | 14.8 | 125 | 
O=C1CC2(CCCC2)CC(=O)N1CCN1CCC(c2ccccc2Cl)CC1 | 1.11 | 5.25 | 2.01
O=C1CC2(CCCC2)CC(=O)N1CCN1CCN(c2cc([N+](=O)[O-])ccc2Cl)CC1 | 18.2 | > 1000 | 44
O=C1CC2(CCCC2)CC(=O)N1CCN1CCN(c2cc(C(F)(F)F)ccc2F)CC1 | 7.56 |  | > 1000
O=C1C=CC(=O)N1CCN1CCN(c2cc(Cl)ccc2Cl)CC1 | 126 | > 1000 | 
CN(CCN1C(=O)CC2(CCCC2)CC1=O)CC(=O)N(C)c1cc(Cl)ccc1Cl | > 1000 | > 1000 | 
O=C1CC2(CCCC2)CC(=O)N1CCN1CCN(c2ccccc2[N+](=O)[O-])CC1 | 15.3 | 11.3 | 
Cc1ccc(C)c(N2CCN(CCN3C(=O)CC4(CCCC4)CC3=O)CC2)c1 | 10.1 |  | 119
CN(CCCN(C)c1cc(Cl)ccc1Cl)CCN1C(=O)CC2(CCCC2)CC1=O | 110 | > 1000 | 
O=C1CC2(CCCC2)CC(=O)N1CCN1CCN(c2ccccc2O)CC1 | 16.1 | 1.36 | 
O=C1CC2(C=CN1CCN1CCN(c3ccccc3Cl)CC1)CCCC2 | 0.84 | 9.38 | 53.9
Cc1ccc(F)c(N2CCN(CCN3C(=O)CC4(CCCC4)CC3=O)CC2)c1 | 2.38 |  | > 1000
COc1ccccc1N1CCN(CCN2C(=O)CC3(CCNCC3)CC2=O)CC1 | 71.7 | > 1000 | 631
O=C1CC2(CCC2)CC(=O)N1CCN1CCN(c2cc(Cl)ccc2Cl)CC1 | 2.65 |  | 120
O=C1CC2(CCCC2)CC(=O)N1CCN1CCN(c2c(Cl)cccc2Cl)CC1 | 29.9 | 234 | 
O=C1CC2(CCCC2)CC(=O)N1CCN1CCN(c2cccc(Cl)c2Cl)CC1 | 12.7 | 3.37 | 
O=C1CC2(CCCC2)CC(=O)N1CCN1CCN(c2ccccc2C(F)(F)F)CC1 | 5.25 | 26.3 | 
CCOC(=O)c1ccccc1N1CCN(CCN2C(=O)CC3(CCCC3)CC2=O)CC1 | 29 | 4.07 | 
O=C1CC2(CCCC2)CC(=O)N1CCN1CCC(c2ccccc2)CC1 | 3.66 | 25.9 | > 1000
O=C1CC2(CCCC2)CC(=O)N1CCN1CCN(c2ccc(F)cc2)CC1 | 24.1 | 153 | 
O=C1CC2(CCCC2)CC(=O)N1CCN1CCN(c2cccc(C(F)(F)F)c2)CC1 | 153 | 8.22 | 
CN(CCNc1cc(Cl)ccc1Cl)CCN1C(=O)CC2(CCCC2)CC1=O | 674 | 717 | 

Structure (SMILES) | Ki [1] [nM] | Ki [2] [nM] | Ki [3] [nM]
O=C1CC2(CCCC2)CC(=O)N1CCN1CCN(c2ccc(Cl)cc2Cl)CC1 | 3.89 | 12.1 | 
O=C1CC2(CCCC2)CC(=O)N1CCNCCOc1ccccc1Cl | > 1000 | > 1000 | 
COc1cccc(N2CCN(CCN3C(=O)CC4(CCCC4)CC3=O)CC2)c1 | 54.3 | 13.4 | > 1000
O=C1CC2(CCCC2)CC(=O)N1CCN1CCN(c2cc(F)ccc2Cl)CC1 | 0.18 |  | 108
COc1ccccc1N1CCN(CCN2CCC3(CCCC3)CC2=O)CC1 | 0.37 | 2.33 | 54.4
COc1ccccc1OCCNCCN1C(=O)CC2(CCCC2)CC1=O | > 1000 | 526 | 
CN(CCOc1cc(Cl)ccc1Cl)CCN1C(=O)CC2(CCCC2)CC1=O | 19.1 | > 1000 | 414
CC(CN1CCN(c2cc(Cl)ccc2Cl)CC1)N1C(=O)CC2(CCCC2)CC1=O (stereo unspecified) | 0.41 |  | 187
Clc1ccccc1N1CCN(CCN2CCC3(CCCC3)CC2)CC1 | 8.74 | 85.4 | > 1000
O=C1CC2(CCCC2)CC(=O)N1CCN1CCN(c2ccccc2F)CC1 |  |  | > 1000
CN(CCCOc1cc(Cl)ccc1Cl)CCN1C(=O)CC2(CCCC2)CC1=O | 110 | 452 | 
O=C1CC2(CCCC2)C(=O)N1CCN1CCN(c2cc(Cl)ccc2Cl)CC1 | 3.11 |  | 68.3
CN(CCN1C(=O)CC2(CCCC2)CC1=O)CCN(C)c1cc(Cl)ccc1Cl | 16.4 |  | 786
O=C1CC2(CCCC2)CC(=O)N1CCN1CCN(c2cc(I)ccc2Cl)CC1 | 15.3 |  | 479
O=C1CC2(CCCCC2)CC(=O)N1CCN1CCN(c2cc(Cl)ccc2Cl)CC1 | 2.21 |  | 331
O=C1CC2(CCCC2)CC(=O)N1CCN1CCN(c2cc(Br)ccc2Br)CC1 | 3.72 |  | 114
N#Cc1ccccc1N1CCN(CCN2C(=O)CC3(CCCC3)CC2=O)CC1 | 0.93 | 5.37 | 214
COc1ccccc1N1CCN(CCN2C(=O)CC3(CCN(Cc4ccccc4)CC3)CC2=O)CC1 | 35.1 | > 1000 | 294
O=C1CC2(CCCC2)CC(=O)N1CCCN1CCN(c2cc(Cl)ccc2Cl)CC1 | 1.72 | 401 | 2.85
COc1ccccc1N1CCN(CCN2C=CC3(CCCC3)CC2=O)CC1 | 3.15 | 3.84 | 29.2
O=C1CC2(CCCC2)CC(=O)N1CCN1CCC(c2cc(Cl)ccc2Cl)CC1 | 1.5 |  | 119
O=C1CC2(CCCC2)CC(=O)N1CCN1CCN(c2ccccc2Cl)CC1 | 0.83 | 4.24 | 552
O=C1CC2(CCCC2)CC(=O)N1CCNCCOc1cc(Cl)ccc1Cl | 207 | > 1000 | 
